In patent publication US11168083B2, “Inhibitors of Plasma Kallikrein and uses thereof” (Takeda Pharmaceutical Company Limited, priority 2017, dated 2021):
Read-outs that look alike come from different tables or passages of the source.

Tests used:
Assay type in all cases: biochemical
Trypsin = assay: Selectivity screen of serine proteases, anti-target panel: Trypsin
Procedure: (§1) Compounds 11, 33, and 53 were evaluated in a selectivity screen of serine proteases.

FXa = FXa (Homo sapiens (Human), UniProt P00742); assay: Selectivity screen of serine proteases, anti-target panel: FXa
Procedure: as §1

Elastase = assay: Selectivity screen of serine proteases, anti-target panel: Elastase
Procedure: as §1

[1] = target: human activated kallikrein enzyme (Homo sapiens (Human), UniProt P03952); assay: Inhibition of human activated kallikrein enzyme, fluorogenic peptide substrate assay (two formats); conditions: read-out: pKal EC50
Procedure: The example compounds were evaluated for inhibition of the human activated kallikrein enzyme in two formats of an assay employing a fluorogenic peptide substrate. In one assay format, the concentrations of reagents were as follows: 20 mM Tris pH 7.5, 1 mM EDTA, 150 mM sodium chloride, 0.1% PEG-400, 0.1% Triton X-100, 500 pM activated kallikrein enzyme, 300 uM Pro-Phe-Arg-7-amido-4-methylcoumarin substrate. Prior to reaction initiation with substrate, enzyme and inhibitors were preincubated for 30 min at room temperature. After initiation with substrate, reactions were incubated for 10 min at room temperature and fluorescence emission at 460 nm from 380 nm excitation measured with a microplate reader. In another assay format, the concentrations of reagents were as follows: 20 mM Tris pH 7.5, 1 mM EDTA, 150 mM sodium chloride, 0.1% PEG-400, 0.1% Triton X-100, 5 pM activated kallikrein enzyme, 300 uM Pro-Phe-Arg-7-amido-4-methylcoumarin substrate. Prior to reaction initiation with substrate, enzyme and inhibitors were preincubated for 30 min at room temperature. After initiation with substrate, reactions were incubated for 18 hr at room temperature and fluorescence emission at 460 nm from 380 nm excitation measured with a microplate reader.

[2] = test system: selected anti-target proteases; assay: Selectivity screen of serine proteases (overall statement); conditions: none showed any inhibitory activity of the anti-target proteases
Procedure: as §1

Thrombin = Thrombin (Homo sapiens (Human), UniProt P00734); assay: Selectivity screen of serine proteases, anti-target panel: Thrombin
Procedure: as §1

[3] = Table 2, column head prints nM, ranges defined in μM

human activated kallikrein enzyme, sequence (P03952 391-638): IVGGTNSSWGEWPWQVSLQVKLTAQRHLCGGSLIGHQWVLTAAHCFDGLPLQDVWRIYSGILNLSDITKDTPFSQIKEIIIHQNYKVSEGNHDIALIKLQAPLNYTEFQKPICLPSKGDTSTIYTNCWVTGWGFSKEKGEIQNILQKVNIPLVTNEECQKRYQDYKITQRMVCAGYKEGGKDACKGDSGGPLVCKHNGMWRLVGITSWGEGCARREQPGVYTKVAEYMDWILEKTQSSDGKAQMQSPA
human activated kallikrein enzyme, sequence (P03952 20-390 partner): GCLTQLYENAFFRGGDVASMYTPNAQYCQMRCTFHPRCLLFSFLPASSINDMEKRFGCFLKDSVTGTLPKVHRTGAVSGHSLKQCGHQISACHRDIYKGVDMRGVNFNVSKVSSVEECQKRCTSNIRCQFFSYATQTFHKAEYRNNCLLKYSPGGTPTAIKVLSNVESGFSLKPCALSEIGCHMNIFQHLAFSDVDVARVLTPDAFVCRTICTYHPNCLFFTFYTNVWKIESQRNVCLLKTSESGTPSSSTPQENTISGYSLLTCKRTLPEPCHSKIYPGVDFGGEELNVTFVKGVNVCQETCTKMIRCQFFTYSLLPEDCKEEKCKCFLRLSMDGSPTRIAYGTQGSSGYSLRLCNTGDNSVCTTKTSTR
FXa, sequence (P00742 235-488): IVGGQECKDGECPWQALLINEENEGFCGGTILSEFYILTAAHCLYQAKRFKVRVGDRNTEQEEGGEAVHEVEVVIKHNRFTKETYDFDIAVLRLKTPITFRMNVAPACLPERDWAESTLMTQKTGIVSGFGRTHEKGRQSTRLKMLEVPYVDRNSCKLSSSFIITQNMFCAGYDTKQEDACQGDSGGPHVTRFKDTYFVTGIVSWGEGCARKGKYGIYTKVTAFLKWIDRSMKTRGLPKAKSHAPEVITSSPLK
FXa, sequence (P00742 41-179 partner): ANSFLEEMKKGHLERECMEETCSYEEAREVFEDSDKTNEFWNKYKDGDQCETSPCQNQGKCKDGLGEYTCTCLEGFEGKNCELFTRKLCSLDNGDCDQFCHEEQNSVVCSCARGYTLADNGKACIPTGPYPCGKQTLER

SMILES	EC50 [1, 3]	further results
CNC(=O)[C@H](CCCCNC(=N)N)NC(=O)c1csc([C@@H]2C[C@@H](N)CN2C(=O)c2cn3cc(Cl)ccc3n2)n1 [Compound 11, 2-((2S,4R)-4-amino-1-(6-chloroimidazo[1,2-a]pyridine-2-carbonyl)pyrrolidin-2-yl)-N—((S)-6-guanidino-1-(methylamino)-1-oxohexan-2-yl)thiazole-4-carboxamide]	≤ 100 nM	IC50 (Trypsin): > 100 µM; IC50 (FXa): > 10 µM; IC50 (Elastase): > 10 µM; EC50 ([1]; Table 3): 32 nM; Selectivity for pKal over selected anti-target proteases [2]: selective inhibitors of pKal; IC50 (Thrombin): > 10 µM
CNC(=O)[C@H](CCCCNC(=N)N)NC(=O)c1csc([C@@H]2CCCN2C(=O)c2cn3cc(Cl)ccc3n2)n1 [Compound 33, 2-((S)-1-(6-Chloroimidazo[1,2-a]pyridine-2-carbonyl)pyrrolidin-2-yl)-N—((S)-6-guanidino-1-(methylamino)-1-oxohexan-2-yl)thiazole-4-carboxamide]	1000 to 5000 nM	IC50 (Trypsin): > 100 µM; IC50 (FXa): > 10 µM; IC50 (Elastase): > 10 µM; EC50 ([1]; Table 3): 3240 nM; Selectivity for pKal over selected anti-target proteases [2]: selective inhibitors of pKal; IC50 (Thrombin): > 10 µM
Cc1cc(N)nc(C)c1CCNC(=O)c1csc([C@@H]2C[C@@H](N)CN2C(=O)c2cn3cc(Cl)ccc3n2)n1 [Compound 52, 2-((2S,4R)-4-amino-1-(6-chloroimidazo[1,2-a]pyridine-2-carbonyl)pyrrolidin-2-yl)-N-(2-(6-amino-2,4-dimethylpyridin-3-yl)ethyl)thiazole-4-carboxamide]	> 9900 nM	–
Nc1nccc2cc(CCNC(=O)c3csc([C@@H]4C[C@@H](N)CN4C(=O)c4cn5cc(Cl)ccc5n4)n3)ccc12 [Compound 53, 2-((2S,4R)-4-amino-1-(6-chloroimidazo[1,2-a]pyridine-2-carbonyl)pyrrolidin-2-yl)-N-(2-(1-aminoisoquinolin-6-yl)ethyl)thiazole-4-carboxamide]	≤ 100 nM	IC50 (Trypsin): > 100 µM; IC50 (FXa): > 10 µM; IC50 (Elastase): > 10 µM; EC50 ([1]; Table 3): 15 nM; Selectivity for pKal over selected anti-target proteases [2]: selective inhibitors of pKal; IC50 (Thrombin): > 10 µM
NCc1ccc(CCNC(=O)c2csc([C@@H]3C[C@@H](N)CN3C(=O)c3cn4cc(Cl)ccc4n3)n2)cc1 [Compound 54, 2-((2S,4R)-4-amino-1-(6-chloroimidazo[1,2-a]pyridine-2-carbonyl)pyrrolidin-2-yl)-N-(4-(aminomethyl)phenethyl)thiazole-4-carboxamide]	1000 to 5000 nM	–
N[C@@H]1C[C@@H](c2nc(C(=O)NCc3ncn4ccc(Cl)cc34)cs2)N(C(=O)c2cn3cc(Cl)ccc3n2)C1 [Compound 55, 2-((2S,4R)-4-amino-1-(6-chloroimidazo[1,2-a]pyridine-2-carbonyl)pyrrolidin-2-yl)-N-((7-chloroimidazo[1,5-a]pyridin-1-yl)methyl)thiazole-4-carboxamide]	100 to 1000 nM	–
N[C@@H]1C[C@@H](c2nc(C(=O)NCc3ccc4cc(Cl)ccc4c3)cs2)N(C(=O)c2cn3cc(Cl)ccc3n2)C1 [Compound 56, 2-((2S,4R)-4-amino-1-(6-chloroimidazo[1,2-a]pyridine-2-carbonyl)pyrrolidin-2-yl)-N-((6-chloronaphthalen-2-yl)methyl)thiazole-4-carboxamide]	> 9900 nM	–
CNC(=O)[C@@H](CCCCNC(=N)N)NC(=O)c1csc([C@@H]2C[C@@H](N)CN2C(=O)c2cc3cc(Cl)ccc3s2)n1 [Compound 57, 2-((2S,4R)-4-amino-1-(5-chlorobenzo[b]thiophene-2-carbonyl)pyrrolidin-2-yl)-N—((R)-6-guanidino-1-(methylamino)-1-oxohexan-2-yl)thiazole-4-carboxamide]	1000 to 5000 nM	–
N[C@@H]1C[C@@H](c2nc(C(=O)NCc3n[nH]c4ccc(Cl)cc34)cs2)N(C(=O)c2cn3cc(Cl)ccc3n2)C1 [Compound 58, 2-((2S,4R)-4-amino-1-(6-chloroimidazo[1,2-a]pyridine-2-carbonyl)pyrrolidin-2-yl)-N-((5-chloro-1H-indazol-3-yl)methyl)thiazole-4-carboxamide]	5000 to 9900 nM	–
N[C@@H]1C[C@@H](c2nc(C(=O)NCc3n[nH]c4cc(Cl)ccc34)cs2)N(C(=O)c2cn3cc(Cl)ccc3n2)C1 [Compound 59, 2-((2S,4R)-4-amino-1-(6-chloroimidazo[1,2-a]pyridine-2-carbonyl)pyrrolidin-2-yl)-N-((6-chloro-1H-indazol-3-yl)methyl)thiazole-4-carboxamide]	> 9900 nM	–
Cc1cc2c(N)nccc2c(C)c1CNC(=O)c1csc([C@@H]2C[C@@H](N)CN2C(=O)c2cn3cc(Cl)ccc3n2)n1 [Compound 60, 2-((2S,4R)-4-amino-1-(6-chloroimidazo[1,2-a]pyridine-2-carbonyl)pyrrolidin-2-yl)-N-((1-amino-5,7-dimethylisoquinolin-6-yl)methyl)thiazole-4-carboxamide]	≤ 100 nM	–
CNC(=O)[C@H](CCCCNC(=N)N)NC(=O)c1csc([C@@H]2C[C@@H](N)CN2C(=O)c2cc3cc(Cl)c(Cl)cc3s2)n1 [Compound 61, 2-((2S,4R)-4-amino-1-(5,6-dichlorobenzo[b]thiophene-2-carbonyl)pyrrolidin-2-yl)-N—((S)-6-guanidino-1-(methylamino)-1-oxohexan-2-yl)thiazole-4-carboxamide]	100 to 1000 nM	–
CNC(=O)[C@H](CCCCNC(=N)N)NC(=O)c1csc([C@@H]2C[C@@H](N)CN2C(=O)c2cc3ccc(Cl)cc3s2)n1 [Compound 62, 2-((2S,4R)-4-amino-1-(6-chlorobenzo[b]thiophene-2-carbonyl)pyrrolidin-2-yl)-N—((S)-6-guanidino-1-(methylamino)-1-oxohexan-2-yl)thiazole-4-carboxamide]	100 to 1000 nM	–
CNC(=O)[C@H](CCCCNC(=N)N)NC(=O)c1csc([C@@H]2C[C@@H](N)CN2C(=O)c2cc3c(Cl)cccc3s2)n1 [Compound 63, 2-((2S,4R)-4-amino-1-(4-chlorobenzo[b]thiophene-2-carbonyl)pyrrolidin-2-yl)-N—((S)-6-guanidino-1-(methylamino)-1-oxohexan-2-yl)thiazole-4-carboxamide]	1000 to 5000 nM	–
CNC(=O)[C@H](CCCCNC(=N)N)NC(=O)c1csc([C@@H]2C[C@@H](N)CN2C(=O)c2cc3cc(C(F)(F)F)ccc3s2)n1 [Compound 64, 2-((2S,4R)-4-amino-1-(5-(trifluoromethyl)benzo[b]thiophene-2-carbonyl)pyrrolidin-2-yl)-N—((S)-6-guanidino-1-(methylamino)-1-oxohexan-2-yl)thiazole-4-carboxamide]	100 to 1000 nM	–
CNC(=O)[C@H](CCCCNC(=N)N)NC(=O)c1csc([C@@H]2C[C@@H](N)CN2C(=O)c2cc3ccc(C)cc3s2)n1 [Compound 65, 2-((2S,4R)-4-amino-1-(6-methylbenzo[b]thiophene-2-carbonyl)pyrrolidin-2-yl)-N—((S)-6-guanidino-1-(methylamino)-1-oxohexan-2-yl)thiazole-4-carboxamide]	100 to 1000 nM	–
CNC(=O)[C@H](CCCCNC(=N)N)NC(=O)c1csc([C@@H]2C[C@@H](N)CN2C(=O)c2cnc3ccc(Cl)cc3c2)n1 [Compound 66, 2-((2S,4R)-4-amino-1-(6-chloroquinoline-3-carbonyl)pyrrolidin-2-yl)-N—((S)-6-guanidino-1-(methylamino)-1-oxohexan-2-yl)thiazole-4-carboxamide]	100 to 1000 nM	–
CNC(=O)[C@H](CCCCNC(=N)N)NC(=O)c1csc([C@@H]2C[C@@H](N)CN2C(=O)c2ccc3nc(Cl)ccc3c2)n1 [Compound 67, 2-((2S,4R)-4-amino-1-(2-chloroquinoline-6-carbonyl)pyrrolidin-2-yl)-N—((S)-6-guanidino-1-(methylamino)-1-oxohexan-2-yl)thiazole-4-carboxamide]	1000 to 5000 nM	–
